Laboratory results: EP4603105A1, “PHARMACEUTICAL COMPOSITION CONTAINING CYCLIC COMPOUND HAVING SELECTIVE KRAS INHIBITORY EFFECT AGAINST HRAS AND NRAS” (CHUGAI SEIYAKU KABUSHIKI KAISHA, priority 2022, dated 2024)

Key:
[1] = molecular target: GDP-bound NRAS wild-type protein (Homo sapiens, UniProt P01111); test: Binding to NRAS by surface plasmon resonance (SPR), KD and KD ratio to KRAS; conditions: ratio of the KD value with respect to GDP-bound NRAS wild-type protein to the KD value with respect to KRAS
In short: (§1)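 GDP-loaded biotinylated Avi-tag RAS proteins (E. coli-expressed) captured on a Biotin CAPture chip at ~100–300 RU; single-cycle kinetics at 30°C, 100 µL/min, 75 s injections of rising compound concentrations. HBS pH 7.4 running buffer with 1 mM DTT, 10 mM MgCl2, 10 µM GDP, 4% DMSO. KD from 1:1 binding fit.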

HRAS wild-type protein = HRAS wild-type protein (Homo sapiens, UniProt P01112); test: Binding to HRAS by surface plasmon resonance (SPR), KD and KD ratio to KRAS; conditions: ratio of the KD value with respect to HRAS wild-type protein to the KD value with respect to KRAS
In short: as §1

[2] = test system: human lung cancer strain NCI-H441; format: cell-based
In short: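 Readout: […] after the ATP-based reagent. Compound: serial dilutions in dimethyl sulfoxide.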

Sequence of GDP-bound NRAS wild-type protein (P01111 whole entry): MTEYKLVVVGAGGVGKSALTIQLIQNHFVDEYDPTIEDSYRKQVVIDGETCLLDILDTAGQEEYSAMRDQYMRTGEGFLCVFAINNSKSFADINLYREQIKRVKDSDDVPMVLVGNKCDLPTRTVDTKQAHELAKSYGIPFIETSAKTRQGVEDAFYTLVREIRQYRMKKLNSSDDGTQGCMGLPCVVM
Sequence of HRAS wild-type protein (P01112 whole entry): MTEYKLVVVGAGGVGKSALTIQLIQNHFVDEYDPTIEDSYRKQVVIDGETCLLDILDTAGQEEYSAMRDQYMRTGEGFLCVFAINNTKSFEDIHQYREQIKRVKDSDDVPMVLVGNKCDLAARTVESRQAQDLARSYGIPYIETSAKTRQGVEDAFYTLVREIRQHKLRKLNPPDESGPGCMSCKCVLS

SMILES | IC50 [2] | NRAS /KRAS [1] | HRAS /KRAS (HRAS wild-type protein)
CCCN1CC(=O)N(C)[C@H]2C/C=C\CCN(C2=O)[C@@H](Cc2ccc(C)cc2)C(=O)N(C)CC(=O)N[C@@H](CCc2ccc(C(F)(F)F)c(OC)c2)C(=O)N2C[C@H](OCC)C[C@H]2C(=O)NC2(CC(C)(C)C2)C(=O)N(C)[C@@H](C2CCCC2)C(=O)N(C)[C@H](C(=O)N(C)C)CC(=O)N(C)[C@@H](CC)C(=O)N[C@@H]([C@@H](C)CC)C1=O [PP2096] | 10.7 nM | A (a compound having 10 or more and less than 20 is denoted as A) | A (a compound having 10 or more and less than 20 is denoted as A)
C=CCN1CC(=O)N(C)[C@H]2C/C=C\CCN(C2=O)[C@@H](Cc2ccc(C)cc2)C(=O)N(C)CC(=O)N[C@@H](CCc2ccc(C(F)(F)F)c(OC)c2)C(=O)N2C[C@H](OCC)C[C@H]2C(=O)NC2(CC(C)(C)C2)C(=O)N(C)[C@@H](C2CCCC2)C(=O)N(C)[C@H](C(=O)N(C)C)CC(=O)N(C)[C@@H](CCC)C(=O)N[C@@H]([C@@H](C)CC)C1=O [PP2098] | 8.4 nM | A (a compound having 10 or more and less than 20 is denoted as A) | A (a compound having 10 or more and less than 20 is denoted as A)
CCO[C@@H]1C[C@H]2C(=O)NC3(CCC3)C(=O)N(C)[C@@H](C3CCCC3)C(=O)N(C)[C@H](C(=O)N(C)CC)CC(=O)N(C)[C@H]3CCCCCc4ccc(cc4)C[C@@H](C(=O)N(C)CC(=O)N[C@@H](CCc4ccc(C(F)(F)F)c(OC)c4)C(=O)N2C1)N1CC/C=C\C[C@@H](C1=O)N(C)C(=O)CN(C)C(=O)[C@H]([C@@H](C)CC)NC3=O [PP2118] | 8.1 nM | A (a compound having 10 or more and less than 20 is denoted as A) | B (a compound having 3 or more and less than 10 is denoted as B)
CCO[C@@H]1C[C@H]2C(=O)NC3(CC(C)(C)C3)C(=O)N(C)[C@@H](C(CC)CC)C(=O)N(C)[C@H](C(=O)N(C)C)CC(=O)N(C)[C@@H](CC3CCC3)C(=O)N[C@@H]([C@@H](C)CC)C(=O)N(C)CC(=O)N(C)[C@H]3C/C=C\CCN(C3=O)[C@@H](Cc3ccc(C)cc3)C(=O)N(C)CC(=O)N[C@@H](CCc3ccc(Cl)c(Cl)c3)C(=O)N2C1 [PP2120] | 75.5 nM | AA (a compound having 20 or more is denoted as AA) | A (a compound having 10 or more and less than 20 is denoted as A)
CCO[C@@H]1C[C@H]2C(=O)NC3(CC(C)(C)C3)C(=O)N(C)[C@@H](C(CC)CC)C(=O)N(C)[C@H](C(=O)N(C)C)CC(=O)N(C)[C@@H](COC)C(=O)N[C@@H]([C@@H](C)CC)C(=O)N(C)CC(=O)N(C)[C@H]3C/C=C\CCN(C3=O)[C@@H](Cc3ccc(C(F)(F)F)cc3)C(=O)N(C)CC(=O)N[C@@H](CCc3cc(F)c(C(F)(F)F)c(F)c3)C(=O)N2C1 [PP2121] | 11.4 nM | AA (a compound having 20 or more is denoted as AA) | A (a compound having 10 or more and less than 20 is denoted as A)
CCO[C@@H]1C[C@H]2C(=O)NC3(CC(C)(C)C3)C(=O)N(C)[C@@H](C(CC)CC)C(=O)N(C)[C@H](C(=O)N(C)C)CC(=O)N(C)[C@@H](C(C)C)C(=O)N[C@@H]([C@@H](C)CC)C(=O)N(C)CC(=O)N(C)[C@H]3C/C=C\CCN(C3=O)[C@@H](Cc3ccc(C)cc3)C(=O)N(C)CC(=O)N[C@@H](CCc3ccc(Cl)c(Cl)c3)C(=O)N2C1 [PP2122] | 107 nM | AA (a compound having 20 or more is denoted as AA) | A (a compound having 10 or more and less than 20 is denoted as A)
CCO[C@@H]1C[C@H]2C(=O)NC3(CC(C)(C)C3)C(=O)N(C)[C@@H](C(CC)CC)C(=O)N(C)[C@H](C(=O)N3CCCC3)CC(=O)N(C)[C@@H](COC)C(=O)N[C@@H]([C@@H](C)CC)C(=O)N(C)CC(=O)N(C)[C@H]3C/C=C\CCN(C3=O)[C@@H](Cc3ccc(C(F)(F)F)cc3)C(=O)N(C)CC(=O)N[C@@H](CCc3cc(F)c(C(F)(F)F)c(F)c3)C(=O)N2C1 [PP2123] | 24.3 nM | A (a compound having 10 or more and less than 20 is denoted as A) | A (a compound having 10 or more and less than 20 is denoted as A)

Further lines, with some results ahead:

IC50 [2] | SMILES | NRAS /KRAS [1] | HRAS /KRAS (HRAS wild-type protein)
5.4 nM | C=CCN1CC(=O)N(C)[C@H]2C/C=C\CCN(C2=O)[C@@H](Cc2ccc(C)cc2)C(=O)N(C)CC(=O)N[C@@H](CCc2cc(F)c(C(F)(F)F)c(F)c2)C(=O)N2C[C@H](OCC)C[C@H]2C(=O)NC2(CC(C)(C)C2)C(=O)N(C)[C@@H](C2CCCC2)C(=O)N(C)[C@H](C(=O)N(C)C)CC(=O)N(C)[C@@H](CCC)C(=O)N[C@@H]([C@@H](C)CC)C1=O [PP2094] | A (a compound having 10 or more and less than 20 is denoted as A) | A (a compound having 10 or more and less than 20 is denoted as A)
5.7 nM | C#CCN1CC(=O)N(C)[C@H]2C/C=C\CCN(C2=O)[C@@H](Cc2ccc(C)cc2)C(=O)N(C)CC(=O)N[C@@H](CCc2cc(F)c(C(F)(F)F)c(F)c2)C(=O)N2C[C@H](OCC)C[C@H]2C(=O)NC2(CC(C)(C)C2)C(=O)N(C)[C@@H](C2CCCC2)C(=O)N(C)[C@H](C(=O)N(C)C)CC(=O)N(C)[C@@H](CCC)C(=O)N[C@@H]([C@@H](C)CC)C1=O [PP2095] | A (a compound having 10 or more and less than 20 is denoted as A) | A (a compound having 10 or more and less than 20 is denoted as A)
16.6 nM | CCC[C@H]1C(=O)N[C@@H]([C@@H](C)CC)C(=O)N(C2CC2)CC(=O)N(C)[C@H]2C/C=C\CCN(C2=O)[C@@H](Cc2ccc(C(F)(F)F)cc2)C(=O)N(C)CC(=O)N[C@@H](CCc2cc(F)c(C(F)(F)F)c(F)c2)C(=O)N2C[C@H](OCC)C[C@H]2C(=O)NC2(CC(C)(C)C2)C(=O)N(C)[C@@H](C2CCCC2)C(=O)N(C)[C@H](C(=O)N(C)C)CC(=O)N1C [PP2101] | A (a compound having 10 or more and less than 20 is denoted as A) | B (a compound having 3 or more and less than 10 is denoted as B)
7 nM | C=CCN1CC(=O)N(C)[C@H]2C/C=C\CCN(C2=O)[C@@H](Cc2ccc(C(F)(F)F)cc2)C(=O)N(C)CC(=O)N[C@@H](CCc2cc(F)c(C(F)(F)F)c(F)c2)C(=O)N2C[C@H](OCC)C[C@H]2C(=O)NC2(CC(C)(C)C2)C(=O)N(C)[C@@H](C2CCCC2)C(=O)N(C)[C@H](C(=O)N(C)C)CC(=O)N(C)[C@@H](CCC)C(=O)N[C@@H]([C@@H](C)CC)C1=O [PP2102] | A (a compound having 10 or more and less than 20 is denoted as A) | A (a compound having 10 or more and less than 20 is denoted as A)
4.3 nM | C#CCN1CC(=O)N(C)[C@H]2C/C=C\CCN(C2=O)[C@@H](Cc2ccc(C(F)(F)F)cc2)C(=O)N(C)CC(=O)N[C@@H](CCc2cc(F)c(C(F)(F)F)c(F)c2)C(=O)N2C[C@H](OCC)C[C@H]2C(=O)NC2(CC(C)(C)C2)C(=O)N(C)[C@@H](C2CCCC2)C(=O)N(C)[C@H](C(=O)N(C)C)CC(=O)N(C)[C@@H](CCC)C(=O)N[C@@H]([C@@H](C)CC)C1=O [PP2103] | A (a compound having 10 or more and less than 20 is denoted as A) | A (a compound having 10 or more and less than 20 is denoted as A)
10.4 nM | CCC[C@H]1C(=O)N[C@@H]([C@@H](C)CC)C(=O)N(C2CC2)CC(=O)N(C)[C@H]2C/C=C\CCN(C2=O)[C@@H](Cc2ccc(C(F)(F)F)cc2)C(=O)N(C)CC(=O)N[C@@H](CCc2ccc(C(F)(F)F)c(OC)c2)C(=O)N2C[C@H](OCC)C[C@H]2C(=O)NC2(CC(C)(C)C2)C(=O)N(C)[C@@H](C2CCCC2)C(=O)N(C)[C@H](C(=O)N(C)C)CC(=O)N1C [PP2105] | A (a compound having 10 or more and less than 20 is denoted as A) | A (a compound having 10 or more and less than 20 is denoted as A)
6.1 nM | C=CCN1CC(=O)N(C)[C@H]2C/C=C\CCN(C2=O)[C@@H](Cc2ccc(C(F)(F)F)cc2)C(=O)N(C)CC(=O)N[C@@H](CCc2ccc(C(F)(F)F)c(OC)c2)C(=O)N2C[C@H](OCC)C[C@H]2C(=O)NC2(CC(C)(C)C2)C(=O)N(C)[C@@H](C2CCCC2)C(=O)N(C)[C@H](C(=O)N(C)C)CC(=O)N(C)[C@@H](CCC)C(=O)N[C@@H]([C@@H](C)CC)C1=O [PP2106] | A (a compound having 10 or more and less than 20 is denoted as A) | A (a compound having 10 or more and less than 20 is denoted as A)
7.8 nM | C#CCN1CC(=O)N(C)[C@H]2C/C=C\CCN(C2=O)[C@@H](Cc2ccc(C(F)(F)F)cc2)C(=O)N(C)CC(=O)N[C@@H](CCc2ccc(C(F)(F)F)c(OC)c2)C(=O)N2C[C@H](OCC)C[C@H]2C(=O)NC2(CC(C)(C)C2)C(=O)N(C)[C@@H](C2CCCC2)C(=O)N(C)[C@H](C(=O)N(C)C)CC(=O)N(C)[C@@H](CCC)C(=O)N[C@@H]([C@@H](C)CC)C1=O [PP2107] | A (a compound having 10 or more and less than 20 is denoted as A) | A (a compound having 10 or more and less than 20 is denoted as A)
8.9 nM | CCO[C@@H]1C[C@H]2C(=O)NC3(CC(C)(C)C3)C(=O)N(C)[C@@H](C(CC)CC)C(=O)N(C)[C@H](C(=O)N(C)C)CC(=O)N(C)[C@@H](CC3CC3)C(=O)N[C@@H]([C@@H](C)CC)C(=O)N(C)CC(=O)N(C)[C@H]3C/C=C\CCN(C3=O)[C@@H](Cc3ccc(C(F)(F)F)cc3)C(=O)N(C)CC(=O)N[C@@H](CCc3cc(F)c(C(F)(F)F)c(F)c3)C(=O)N2C1 [PP2119] | A (a compound having 10 or more and less than 20 is denoted as A) | B (a compound having 3 or more and less than 10 is denoted as B)
